Assay results as given in patent US9126953B2, “Triazole compounds that modulate HSP90 activity” (Synta Pharmaceuticals Corp., priority 2008, dated 2015).

Each compound was assayed on Her2 (assay: Degradation of Her2 in BT-474 cells, Method 1 (Western blot)). Details: 0.5 μM, overnight, positive control.
Type: cell-based, human
Method: Human high-Her2 breast carcinoma BT474 (HTB-20), SK-BR-3 (HTB-30) and MCF-7 breast carcinoma (HTB-22) from American Type Culture Collection, VA, USA were grown in Dulbecco's modified Eagle's medium with 4 mM L-glutamine and antibiotics (100 IU/ml penicillin and 100 μg/ml streptomycine; GibcoBRL). To obtain exponential cell growth, cells were trypsinized, counted and seeded at a cell density of 0.5×10^6 cells/ml regularly, every 3 days. All experiments were performed on day 1 after cell passage.
BT-474 cells are treated with 0.5 μM, 2 μM, or 5 μM of 17AAG (a positive control) or 0.5 μM, 2 μM, or 5 μM of a compound of the invention overnight in DMEM medium. After treatment, each cytoplasmic sample is prepared from 1×10^6 cells by incubation of cell lysis buffer (#9803, Cell Signaling Technology) on ice for 10 minutes. The resulting supernatant used as the cytosol fractions is dissolved with sample buffer for SDS-PAGE and run on a SDS-PAGE gel, blotted onto a nitrocellulose membrane by using semi-dry transfer. Non-specific binding to nitrocellulose is blocked with 5% skim milk in TBS with 0.5% Tween at room temperature for 1 hour, then probed with anti-Her2/ErB2 mAb (rabbit IgG, #2242, Cell Signaling) and anti-Tubulin (T9026, Sigma) as housekeeping control protein. […]

SMILES | degradation of Her2
C=CCNC1=C2C[C@@H](C)C[C@H](OC)[C@H](O)[C@@H](C)/C=C(\C)[C@H](OC(N)=O)[C@@H](OC)/C=C\C=C(/C)C(=O)NC(=CC1=O)C2=O [Compound 17AAG, 17-allylamino-17-demethoxygeldanamycin] | partial degradation

These compounds were tested on MV-4-11 cells (assay: Her2 degradation Method 2: MV-4-11 cell survival, Cell Counting Kit-8 (Table 2: inhibition of Hsp90)). Details: Homo sapiens, MV4-11, 72 hours, cell survival by Cell Counting Kit-8, text calls it IC50 for Her2 degradation, read-out: IC50 range of compounds of the invention for inhibition of Hsp90, IC50.
Type: cell-based
Method: MV-4-11 cells (20,000 cells/well) were cultured in 96-well plates and maintained at 37° C. for several hours. The cells were treated with a compound of the invention or 17AAG (a positive control) at various concentrations and incubated at 37° C. for 72 hours. Cell survival was measured with Cell Counting Kit-8 (Dojindo Laboratories, Cat. # CK04).

SMILES | IC50 [µM]
COc1ccc(-n2c(C(N)=O)nnc2-c2c(O)ccc3c2CCCC3)cc1 [Compound 6, 5-(2-hydroxy-5,6,7,8-tetrahydronaphthalen-1-yl)-4-(4-methoxyphenyl)-4H-1,2,4-triazole-3-carboxamide] | 20 to 50
NC(=O)c1nnc(-c2cc3c(cc2O)OCO3)n1-c1ccc(N2CCOCC2)cc1 [Compound 1, 5-(6-hydroxybenzo[d][1,3]-dioxol-5-yl)-4-(4-morpholinophenyl)-4H-1,2,4-triazole-3-carboxamide] | 20 to 50
COc1ccc(-n2c(C(N)=O)nnc2-c2cc3c(cc2O)OCCC3)cc1 [Compound 4, 5-(7-hydroxychroman-6-yl)-4-(4-methoxyphenyl)-4H-1,2,4-triazole-3-carboxamide] | > 50
NC(=O)c1nnc(-c2cc3c(cc2O)OCCC3)n1-c1ccc2c(c1)OCO2 [Compound 2, 4-(benzo[d][1,3]dioxol-5-yl)-5-(7-hydroxychroman-6-yl)-4H-1,2,4-triazole-3-carboxamide] | ≤ 10
COc1ccc(-n2c(C(N)=O)nnc2-c2cc3c(cc2O)CCC3)cc1 [Compound 5, 5-(6-hydroxy-2,3-dihydro-1H-inden-5-yl)-4-(4-methoxyphenyl)-4H-1,2,4-triazole-3-carboxamide] | 10 to 20
COc1ccc(-n2c(C(N)=O)nnc2-c2cc3c(cc2O)OCC3)cc1 [Compound 3, 5-(6-hydroxy-2,3-dihydrobenzofuran-5-yl)-4-(4-methoxyphenyl)-4H-1,2,4-triazole-3-carboxamide] | 20 to 50
COc1ccc(-n2c(C(N)=O)nnc2-c2c(O)ccc3ccccc23)cc1 [Compound 7, 5-(2-hydroxynaphthalen-1-yl)-4-(4-methoxyphenyl)-4H-1,2,4-triazole-3-carboxamide] | 20 to 50
COc1ccc(-n2c(C(N)=O)nnc2-c2ccc3c(c2O)CCCC3)cc1 [Compound 8, 5-(1-hydroxy-5,6,7,8-tetrahydronaphthalen-2-yl)-4-(4-methoxyphenyl)-4H-1,2,4-triazole-3-carboxamide] | > 50
